Reference: doi:10.1101/2023.08.21.553510v1 (biorxiv, 2023)

Experiments:
RyR2 [1] = molecular target: T1, RyR2 (Mus musculus, UniProt E9Q401); assay: [3H]ryanodine binding to microsomes; assay type: biochemical
RyR2 [2] = molecular target: T1, RyR2; assay: ER Ca2+; assay type: cell-based

T1 sequence (E9Q401 whole entry): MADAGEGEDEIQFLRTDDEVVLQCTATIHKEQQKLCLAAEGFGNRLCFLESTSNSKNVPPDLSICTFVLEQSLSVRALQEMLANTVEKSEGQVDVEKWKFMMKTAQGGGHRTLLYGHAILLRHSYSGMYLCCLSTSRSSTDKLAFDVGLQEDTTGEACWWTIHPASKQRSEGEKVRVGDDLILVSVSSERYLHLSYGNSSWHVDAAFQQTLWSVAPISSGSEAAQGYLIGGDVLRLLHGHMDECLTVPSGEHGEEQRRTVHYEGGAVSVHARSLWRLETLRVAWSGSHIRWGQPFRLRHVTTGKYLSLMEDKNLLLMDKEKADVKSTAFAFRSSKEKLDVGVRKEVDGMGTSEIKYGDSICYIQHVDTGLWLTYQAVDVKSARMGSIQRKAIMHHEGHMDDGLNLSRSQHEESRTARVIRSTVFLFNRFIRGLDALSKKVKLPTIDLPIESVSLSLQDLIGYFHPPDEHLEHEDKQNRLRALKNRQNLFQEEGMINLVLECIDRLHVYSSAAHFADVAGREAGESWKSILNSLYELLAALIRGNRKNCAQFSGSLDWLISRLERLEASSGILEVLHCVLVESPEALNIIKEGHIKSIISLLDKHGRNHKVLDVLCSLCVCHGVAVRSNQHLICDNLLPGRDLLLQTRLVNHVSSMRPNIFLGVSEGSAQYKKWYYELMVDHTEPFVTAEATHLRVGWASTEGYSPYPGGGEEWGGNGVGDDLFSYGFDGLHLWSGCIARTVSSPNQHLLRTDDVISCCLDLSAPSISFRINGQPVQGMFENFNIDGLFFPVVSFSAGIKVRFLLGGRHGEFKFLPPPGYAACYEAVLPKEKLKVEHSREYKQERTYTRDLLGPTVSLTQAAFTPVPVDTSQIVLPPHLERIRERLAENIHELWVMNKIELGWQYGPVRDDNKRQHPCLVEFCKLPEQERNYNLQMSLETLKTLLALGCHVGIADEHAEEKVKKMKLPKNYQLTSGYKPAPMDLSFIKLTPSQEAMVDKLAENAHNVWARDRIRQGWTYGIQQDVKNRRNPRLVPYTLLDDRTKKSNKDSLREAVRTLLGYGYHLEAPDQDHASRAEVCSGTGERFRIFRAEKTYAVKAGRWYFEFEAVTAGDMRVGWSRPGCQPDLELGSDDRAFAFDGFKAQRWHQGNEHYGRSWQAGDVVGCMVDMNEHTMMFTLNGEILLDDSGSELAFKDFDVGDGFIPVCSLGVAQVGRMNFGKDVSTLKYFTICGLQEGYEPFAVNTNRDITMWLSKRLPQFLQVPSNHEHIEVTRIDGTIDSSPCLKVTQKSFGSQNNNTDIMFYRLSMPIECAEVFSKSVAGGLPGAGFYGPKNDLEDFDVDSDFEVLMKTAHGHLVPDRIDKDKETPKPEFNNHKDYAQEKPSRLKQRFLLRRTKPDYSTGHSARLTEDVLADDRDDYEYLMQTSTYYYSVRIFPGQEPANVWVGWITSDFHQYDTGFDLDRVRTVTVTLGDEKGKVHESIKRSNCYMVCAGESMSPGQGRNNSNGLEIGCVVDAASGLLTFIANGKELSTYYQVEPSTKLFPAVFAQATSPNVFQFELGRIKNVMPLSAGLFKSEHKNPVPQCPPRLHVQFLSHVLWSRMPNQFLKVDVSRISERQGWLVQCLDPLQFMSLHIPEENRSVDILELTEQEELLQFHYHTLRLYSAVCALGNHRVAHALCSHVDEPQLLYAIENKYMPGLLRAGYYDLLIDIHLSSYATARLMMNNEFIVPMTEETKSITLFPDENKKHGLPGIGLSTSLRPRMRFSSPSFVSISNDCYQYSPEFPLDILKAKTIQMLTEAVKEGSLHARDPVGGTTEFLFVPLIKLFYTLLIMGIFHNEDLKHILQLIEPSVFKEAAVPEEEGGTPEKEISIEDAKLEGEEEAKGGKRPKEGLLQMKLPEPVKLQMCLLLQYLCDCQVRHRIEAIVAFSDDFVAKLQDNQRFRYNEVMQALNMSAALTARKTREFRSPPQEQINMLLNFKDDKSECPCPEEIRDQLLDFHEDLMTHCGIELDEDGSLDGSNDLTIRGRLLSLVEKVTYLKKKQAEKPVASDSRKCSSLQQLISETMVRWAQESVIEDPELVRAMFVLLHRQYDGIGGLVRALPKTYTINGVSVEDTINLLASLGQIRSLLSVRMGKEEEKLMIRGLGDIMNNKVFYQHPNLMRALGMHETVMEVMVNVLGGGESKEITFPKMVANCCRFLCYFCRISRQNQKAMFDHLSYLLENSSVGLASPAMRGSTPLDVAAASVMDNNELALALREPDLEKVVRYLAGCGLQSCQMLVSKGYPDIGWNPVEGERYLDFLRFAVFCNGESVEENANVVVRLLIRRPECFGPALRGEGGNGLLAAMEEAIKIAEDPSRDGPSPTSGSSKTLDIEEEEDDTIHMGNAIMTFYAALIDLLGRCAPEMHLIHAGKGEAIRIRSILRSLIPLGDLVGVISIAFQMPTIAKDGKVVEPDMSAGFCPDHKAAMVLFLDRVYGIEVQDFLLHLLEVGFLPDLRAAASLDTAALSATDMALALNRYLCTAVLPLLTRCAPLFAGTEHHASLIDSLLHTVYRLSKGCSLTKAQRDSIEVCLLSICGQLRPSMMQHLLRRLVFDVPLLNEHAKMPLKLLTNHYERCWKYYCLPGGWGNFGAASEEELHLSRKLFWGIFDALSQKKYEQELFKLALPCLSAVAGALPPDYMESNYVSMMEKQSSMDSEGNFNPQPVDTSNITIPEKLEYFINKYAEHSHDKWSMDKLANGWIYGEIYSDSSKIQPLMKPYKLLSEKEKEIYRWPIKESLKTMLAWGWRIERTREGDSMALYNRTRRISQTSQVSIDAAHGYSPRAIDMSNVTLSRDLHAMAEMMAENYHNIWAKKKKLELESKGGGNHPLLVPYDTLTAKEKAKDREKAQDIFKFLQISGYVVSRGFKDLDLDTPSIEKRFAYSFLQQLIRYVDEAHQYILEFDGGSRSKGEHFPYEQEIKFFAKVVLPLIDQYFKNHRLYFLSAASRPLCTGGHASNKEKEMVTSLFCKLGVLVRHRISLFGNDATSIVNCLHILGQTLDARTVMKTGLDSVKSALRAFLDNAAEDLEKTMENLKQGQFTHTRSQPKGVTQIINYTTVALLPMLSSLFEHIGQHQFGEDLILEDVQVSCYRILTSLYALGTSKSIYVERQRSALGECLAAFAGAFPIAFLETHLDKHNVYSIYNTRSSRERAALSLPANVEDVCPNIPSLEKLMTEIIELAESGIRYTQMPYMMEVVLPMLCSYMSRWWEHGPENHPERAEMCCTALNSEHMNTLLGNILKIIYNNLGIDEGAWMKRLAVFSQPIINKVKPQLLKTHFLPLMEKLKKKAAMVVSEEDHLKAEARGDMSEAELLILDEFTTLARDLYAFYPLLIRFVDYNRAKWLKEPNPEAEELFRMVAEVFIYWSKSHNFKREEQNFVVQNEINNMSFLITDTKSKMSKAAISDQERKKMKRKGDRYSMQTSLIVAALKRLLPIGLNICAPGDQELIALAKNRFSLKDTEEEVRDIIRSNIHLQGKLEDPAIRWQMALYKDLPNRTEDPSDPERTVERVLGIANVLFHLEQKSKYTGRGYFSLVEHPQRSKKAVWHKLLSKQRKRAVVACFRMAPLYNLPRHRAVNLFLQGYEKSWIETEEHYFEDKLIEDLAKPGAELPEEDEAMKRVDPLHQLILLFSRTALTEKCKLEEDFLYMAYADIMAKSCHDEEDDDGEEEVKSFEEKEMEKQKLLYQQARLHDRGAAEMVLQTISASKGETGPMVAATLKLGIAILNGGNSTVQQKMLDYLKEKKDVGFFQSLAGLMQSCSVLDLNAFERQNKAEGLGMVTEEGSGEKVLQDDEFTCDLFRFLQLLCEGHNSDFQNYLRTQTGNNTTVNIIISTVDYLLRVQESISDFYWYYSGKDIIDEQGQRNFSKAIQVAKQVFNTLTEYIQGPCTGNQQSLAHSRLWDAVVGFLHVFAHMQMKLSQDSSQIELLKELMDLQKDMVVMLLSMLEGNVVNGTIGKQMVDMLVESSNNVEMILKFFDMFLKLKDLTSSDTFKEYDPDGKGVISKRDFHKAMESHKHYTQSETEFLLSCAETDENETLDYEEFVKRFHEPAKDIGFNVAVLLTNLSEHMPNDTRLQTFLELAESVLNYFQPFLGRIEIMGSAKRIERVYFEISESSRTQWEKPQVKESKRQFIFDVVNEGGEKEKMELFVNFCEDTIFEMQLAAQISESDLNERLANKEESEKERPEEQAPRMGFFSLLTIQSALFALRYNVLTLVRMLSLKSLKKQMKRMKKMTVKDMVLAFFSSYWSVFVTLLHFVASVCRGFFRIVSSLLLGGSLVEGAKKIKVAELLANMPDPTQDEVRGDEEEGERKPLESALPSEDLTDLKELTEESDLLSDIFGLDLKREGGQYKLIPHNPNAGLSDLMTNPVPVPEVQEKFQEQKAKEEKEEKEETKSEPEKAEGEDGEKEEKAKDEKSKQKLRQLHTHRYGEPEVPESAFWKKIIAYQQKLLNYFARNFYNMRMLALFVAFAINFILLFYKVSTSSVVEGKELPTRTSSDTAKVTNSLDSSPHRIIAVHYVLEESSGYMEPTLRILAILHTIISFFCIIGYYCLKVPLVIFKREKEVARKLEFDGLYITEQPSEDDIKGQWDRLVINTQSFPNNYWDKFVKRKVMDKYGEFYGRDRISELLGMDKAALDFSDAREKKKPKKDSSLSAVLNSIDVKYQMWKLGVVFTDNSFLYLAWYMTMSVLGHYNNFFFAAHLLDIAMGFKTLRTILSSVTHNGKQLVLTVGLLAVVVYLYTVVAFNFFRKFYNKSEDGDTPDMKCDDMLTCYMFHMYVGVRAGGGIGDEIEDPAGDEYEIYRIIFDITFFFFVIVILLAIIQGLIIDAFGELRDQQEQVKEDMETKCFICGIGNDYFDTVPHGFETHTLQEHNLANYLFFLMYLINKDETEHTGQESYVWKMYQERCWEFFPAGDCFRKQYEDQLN

- IC50 (RyR2 [1]): 0.13 µM
- EC50 (RyR2 [2]): 0.3 µM
SMILES: Cc1cc(O)cc(C)c1Cl [#1, chloroxylenol]
